“And” between values parts separate entries of the source, which are not always exact repeats. Equal entries are not always repeated.
Key:
Type in all cases: in vivo, human
[1] = test system: γH2AX; experiment: Paired tumor biopsy γH2AX IHC; conditions: four paired biopsies, after 2-week dosing
Method: (§1) PD sampling took place at baseline (within 7 days prior to dosing) and between days 15 and 22 of dosing (day 14 for intermittent dosing cohorts). PD samples included PBMCs and tumor biopsies. PBMCs were analyzed by immunofluorescence for γ^(S139)H2AX, p-^(S345)Chk1, and total Chk1, as described in Supplemental Methods. Paired tumor biopsies were formalin fixed and analyzed for nuclear p-^(S635)Rad50 and γH2AX by IHC. […]
(§2) signatures for heatmap construction were used from MSigDB (49) and cell-type-related transcripts from NanoString annotations and Bindea et al (50). Cell-type deconvolution was performed using CIBERSORTx (51).
(§3) Supplementary Pharmacodynamic methods
(§4) Formalin fixed paraffin-embedded tumor samples were used. […] H-score was calculated using HALO image analysis (Indica Labs). […] Nuclear ATM (Abcam 32420) IHC staining was carried out on the Ventana autostainer, using DAB detection and assessed by H-score, but samples were only deemed acceptable if lymphocyte staining (internal control) was at least 2+ (moderate) intensity. Cyclin E1 (Invitrogen HE12) staining was carried out on the Ventana autostainer, using DAB detection and the H-score was quantified using HALO image analysis (Indica Labs). Ki67 (Mib-1, Dako M7240) was scored by percent nuclear positivity using a global unweighted method, scoring 4 areas of 100 cells. […]

[2] = test system: phospho-(S635)Rad50; experiment: Paired tumor biopsy p-Rad50 IHC; conditions: four paired biopsies, after 2-week dosing
Method: as §1, §2, §3, §4

[3] = test system: γH2AX; experiment: PBMC γH2AX immunofluorescence (% cells with >5 foci); conditions: after treatment at the RP2D, most subjects
Method: PD sampling took place at baseline (within 7 days prior to dosing) and between days 15 and 22 of dosing (day 14 for intermittent dosing cohorts). PD samples included PBMCs and tumor biopsies. PBMCs were analyzed by immunofluorescence for γ^(S139)H2AX, p-^(S345)Chk1, and total Chk1, as described in Supplemental Methods. Paired tumor biopsies were formalin fixed and analyzed for nuclear p-^(S635)Rad50 and γH2AX by IHC.
PBMCs were isolated from blood using BD Vacutainer® CPT™ Cell preparation tubes with sodium citrate (BD Biosciences, Wokingham, UK) and fixed with 4% formalin containing 1% Triton™ X-100 (Sigma-Aldrich, St. Louis, MO). […] A Carl Zeiss LSM 700 confocal laser scanning fluorescence microscope (Zeiss, Jena, Germany) was used to visualize and capture images of the PBMCs. Fluorescent nuclear intensity for phospho-(S345) and total Chk1 in individual PBMC cells were quantified using the IN Cell Investigator Developer Toolbox v1.9 software (GE Healthcare Biosciences, Piscataway, NJ). For the phospho(S345)- and total Chk1 assays: the raw data values (fluorescent nuclear intensity for PBMCs), the percentage change for phospho(S345) biomarker was calculated for each subject by comparing the levels measured at each post-dose time point to pre-dose levels measured at baseline. […]
Peripheral blood was drawn into 8 mL EDTA tubes (Vacutainer, BD) and analyzed within 24 hours. […]

[4] = test system: tumor biopsies; experiment: CIBERSORTx cell-type deconvolution of tumor biopsy RNA-Seq; conditions: individual patients
Method: signatures for heatmap construction were used from MSigDB (49) and cell-type-related
transcripts from NanoString annotations and Bindea et al (50). Cell-type deconvolution was
performed using CIBERSORTx (51). […]

## C[C@@H]1COCCN1c1cc(C2([S@](C)(=N)=O)CC2)nc(-c2cc[nH]c3nccc2-3)n1 [ceralasertib]
[1]
  Number of γH2AX-positive cells in paired tumor biopsies: increase
[2]
  p-Rad50 in paired tumor biopsies: upregulation
[3]
  γH2AX positivity in PBMCs: Increased
[4]; D15 PR
  CIBERSORTx proportion CD8, on-treatment tumor biopsy: 0
  CIBERSORTx proportion M0 Mac, on-treatment tumor biopsy: 0.1391 and 0.5318 and 0.5438
  CIBERSORTx proportion M1 Mac, on-treatment tumor biopsy: 0.1372 and 0 (2×)
  CIBERSORTx proportion M2 Mac, on-treatment tumor biopsy: 0.1138 and 0.03909 and 0.06393
  CIBERSORTx proportion Naive B, on-treatment tumor biopsy: 0.01104 and 0.04034 and 0
  CIBERSORTx proportion Naive CD4, on-treatment tumor biopsy: 0 and 0.0004844 and 0.004743
  CIBERSORTx proportion Neutrophils, on-treatment tumor biopsy: 0.03549 and 0.1415 and 0.09333
  CIBERSORTx proportion Treg, on-treatment tumor biopsy: 0
  CIBERSORTx proportion active DC, on-treatment tumor biopsy: 0.02084 and 0.01306 and 0.1026
  CIBERSORTx proportion active NK, on-treatment tumor biopsy: 0.09471 and 0 (2×)
  CIBERSORTx proportion resting DC, on-treatment tumor biopsy: 0
  CIBERSORTx proportion resting NK, on-treatment tumor biopsy: 0 and 0.07254 and 0.04433
[4]; D15 non-PR
  CIBERSORTx proportion CD8, on-treatment tumor biopsy: 0 (3×) and 0.09128
  CIBERSORTx proportion M0 Mac, on-treatment tumor biopsy: 0.07738 and 0.2479 and 0.5291 and 0.2524
  CIBERSORTx proportion M1 Mac, on-treatment tumor biopsy: 0 (2×) and 0.002883 and 0.04168
  CIBERSORTx proportion M2 Mac, on-treatment tumor biopsy: 0.325 and 0.00838 and 0.1257 and 0.0276
  CIBERSORTx proportion Naive B, on-treatment tumor biopsy: 0 (2×) and 0.07794 and 0.002559
  CIBERSORTx proportion Naive CD4, on-treatment tumor biopsy: 0
  CIBERSORTx proportion Neutrophils, on-treatment tumor biopsy: 0 (2×) and 0.09632 and 0.04836
  CIBERSORTx proportion Treg, on-treatment tumor biopsy: 0 (2×) and 0.01681 and 0.03886
  CIBERSORTx proportion active DC, on-treatment tumor biopsy: 0.01626 and 0.04266 and 0 (2×)
  CIBERSORTx proportion active NK, on-treatment tumor biopsy: 0.08744 and 0 (2×) and 0.005269
  CIBERSORTx proportion resting DC, on-treatment tumor biopsy: 0 (3×) and 0.002776
  CIBERSORTx proportion resting NK, on-treatment tumor biopsy: 0 and 0.1019 and 0.06313 and 0.04038

— article PMC10786692 (The Journal of Clinical Investigation, 2024)
